Results from ChEMBL document CHEMBL1201862, “PubChem BioAssay data set” (2004).
Several values for one entry are separate records, joined by “and”; a condition that tells them apart may be missing. Equal entries are not always repeated.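 Test compounds were applied to cells in 96-well plates for 48 hours at 5 doses. The concentration for 50% growth inhibition is given as GI50.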 Activity calls are given as the source filed them. Rule as the data show it: active = GI50 up to about 1.1 µM and inactive = higher.

Tests used:
Experiment in all cases: NCI tumour cell line growth inhibition, 48 h
HCT-15 = system: HCT-15
SNB-75 = system: SNB-75
M14 = system: M14
OVCAR-3 = system: OVCAR-3
K562 = system: K562
KM12 = system: KM12
EKVX = system: EKVX
MDA-N = system: MDA-N
TK-10 = system: TK-10
HCC 2998 = system: HCC 2998
NCI-H460 = system: NCI-H460
UO-31 = system: UO-31
UACC-257 = system: UACC-257
MDA-MB-435 = system: MDA-MB-435
UACC-62 = system: UACC-62
SK-MEL-28 = system: SK-MEL-28
SNB-19 = system: SNB-19
786-0 = system: 786-0
RXF 393 = system: RXF 393
MCF7 = system: MCF7
COLO 205 = system: COLO 205
OVCAR-5 = system: OVCAR-5
HT-29 = system: HT-29
RPMI-8226 = system: RPMI-8226
A498 = system: A498
Hs-578T = system: Hs-578T
IGROV-1 = system: IGROV-1
SR = system: SR
A549 = system: A549
PC-3 = system: PC-3
T47D = system: T47D
SK-MEL-2 = system: SK-MEL-2
MOLT-4 = system: MOLT-4
SF-295 = system: SF-295
DU-145 = system: DU-145
SK-MEL-5 = system: SK-MEL-5
SW-620 = system: SW-620
SK-OV-3 = system: SK-OV-3
NCI-H522 = system: NCI-H522
LOX IMVI = system: LOX IMVI
ACHN = system: ACHN
Malme-3M = system: Malme-3M
CCRF-CEM = system: CCRF-CEM
MDA-MB-231 = system: MDA-MB-231
NCI-H226 = system: NCI-H226
HOP-92 = system: HOP-92
HCT-116 = system: HCT-116
OVCAR-4 = system: OVCAR-4
NCI-H23 = system: NCI-H23
HL-60 = system: HL-60
CAKI-1 = system: CAKI-1
OVCAR-8 = system: OVCAR-8
HOP-62 = system: HOP-62
SF-268 = system: SF-268
SN12C = system: SN12C

Compound	GI50 (SNB-75)	GI50 (M14)	GI50 (OVCAR-3)	GI50 (K562)	GI50 (KM12)	GI50 (EKVX)	GI50 (MDA-N)	GI50 (HCC 2998)	GI50 (UACC-257)	GI50 (SK-MEL-28)	GI50 (786-0)	GI50 (RXF 393)	GI50 (MCF7)	GI50 (COLO 205)	GI50 (HT-29)	GI50 (RPMI-8226)	GI50 (IGROV-1)	GI50 (SR)	GI50 (PC-3)	GI50 (SW-620)	also measured
Cc1ccc(-c2cc(-c3ccco3)c(C#N)c(=S)n2C2OC(CO)C(O)C(O)C2O)cc1 (stereo not drawn)	66.4 µM (inactive) and 60.5 µM (inactive)	17.7 µM (inactive) and 30.3 µM (inactive)	21.4 µM (inactive) and 35.6 µM (inactive)	39 µM (inactive)	17.2 µM (inactive) and 30.1 µM (inactive)	> 100 µM (inactive) and 95.9 µM (inactive)	30.4 µM (inactive) and 34.4 µM (inactive)	> 100 µM (inactive)	53.8 µM (inactive) and 45.3 µM (inactive)	52.2 µM (inactive) and 41 µM (inactive)	36.6 µM (inactive) and 56.8 µM (inactive)	18.6 µM (inactive) and 18.9 µM (inactive)	27.9 µM (inactive) and 49 µM (inactive)	27.2 µM (inactive) and 35.1 µM (inactive)	34.9 µM (inactive) and 34 µM (inactive)	4.46 µM (inactive) and 6.04 µM (inactive)					GI50 (HCT-15): 94.6 µM and 49.2 µM; GI50 (TK-10): 67.8 µM (inactive) and 54.5 µM (inactive); GI50 (NCI-H460): 28 µM (inactive) and 36.6 µM (inactive); GI50 (UO-31): 18.5 µM (inactive) and 31.7 µM (inactive); GI50 (MDA-MB-435): 43.2 µM (inactive) and 38.9 µM (inactive); GI50 (UACC-62): 2.23 µM (inactive) and 2.48 µM (inactive); GI50 (SNB-19): 36.1 µM (inactive) and 68.9 µM (inactive); GI50 (OVCAR-5): 45.7 µM (inactive) and 39.5 µM (inactive); GI50 (A498): 41 µM (inactive) and 28.2 µM (inactive)
O=C1c2scc(-c3ccc(Cl)cc3)c2-n2cccc21	2.4 µM (inactive)	50.5 µM (inactive)	> 100 µM (inactive)	3.93 µM (inactive)	5.25 µM (inactive)	2.47 µM (inactive)	8.65 µM (inactive)	> 100 µM (inactive)	> 100 µM (inactive)	> 100 µM (inactive)		> 100 µM (inactive)		> 100 µM (inactive)		> 100 µM (inactive)	3.17 µM (inactive)	2.84 µM (inactive)	> 100 µM (inactive)	> 100 µM (inactive)	GI50 (Hs-578T): 1.95 µM (inactive); GI50 (A549): > 100 µM (inactive); GI50 (T47D): > 100 µM (inactive); GI50 (SK-MEL-2): > 100 µM (inactive); GI50 (MOLT-4): 73.3 µM (inactive); GI50 (SF-295): > 100 µM (inactive); GI50 (NCI-H460): > 100 µM (inactive); GI50 (MDA-MB-435): 8.04 µM (inactive); GI50 (UACC-62): 7.13 µM (inactive); GI50 (DU-145): > 100 µM (inactive); GI50 (SK-MEL-5): > 100 µM (inactive); GI50 (SK-OV-3): > 100 µM (inactive); GI50 (NCI-H522): 2.98 µM (inactive); GI50 (LOX IMVI): > 100 µM (inactive); GI50 (OVCAR-5): > 100 µM (inactive); GI50 (ACHN): > 100 µM (inactive); GI50 (A498): 1.11 µM (active); GI50 (Malme-3M): > 100 µM (inactive); GI50 (CCRF-CEM): > 100 µM (inactive); GI50 (MDA-MB-231): 14 µM (inactive)
CC1OC(O[C@H]2/C=C/C=C/C=C/C=C/C=C/C=C/C=C/[C@H](C)[C@@H](O)[C@@H](C)[C@H](C)OC(=O)C[C@H](O)C[C@H](O)CC[C@@H](O)[C@H](O)C[C@H](O)C[C@]3(O)C[C@H](O)[C@@H](C(=O)O)[C@H](C2)O3)C(O)C(N)C1O (stereo partly drawn)			15.9 µM (inactive)	60.4 µM (inactive)	20.5 µM (inactive)		7.69 µM (inactive)	28.5 µM (inactive)			4.4 µM (inactive)	5.64 µM (inactive)	20.5 µM (inactive)	24.3 µM (inactive)	21.8 µM (inactive)		10 µM (inactive)	2.35 µM (inactive)	16.3 µM (inactive)	11.6 µM (inactive)	GI50 (Hs-578T): 9.25 µM (inactive); GI50 (NCI-H226): > 100 µM (inactive); GI50 (HOP-92): 32.2 µM (inactive); GI50 (SK-MEL-2): 36.7 µM (inactive); GI50 (HCT-116): 24.3 µM (inactive); GI50 (UO-31): 1.79 µM (inactive); GI50 (OVCAR-4): 18.2 µM (inactive); GI50 (SK-OV-3): 37.3 µM (inactive); GI50 (NCI-H522): 8.87 µM (inactive); GI50 (CCRF-CEM): 6.15 µM (inactive)
CCOC(=O)c1sc2nc(-c3ccccc3)nn2c1CBr	2.24 µM (inactive)	1.51 µM (inactive)		0.589 µM (active)	2.11 µM (inactive)	> 10 µM (inactive)		5.33 µM (inactive)	2.16 µM (inactive)	1.95 µM (inactive)	1.6 µM (inactive)	2.59 µM (inactive)	1.91 µM (inactive)	1.9 µM (inactive)	1.89 µM (inactive)	1.74 µM (inactive)	3.17 µM (inactive)	0.311 µM (active)	2.06 µM (inactive)	1.73 µM (inactive)	GI50 (NCI-H23): 1.94 µM (inactive); GI50 (A549): 5.11 µM (inactive); GI50 (HL-60): 348 nM (active); GI50 (T47D): 2.42 µM (inactive); GI50 (TK-10): 2.34 µM (inactive); GI50 (MOLT-4): 0.296 µM (active); GI50 (SF-295): 9.29 µM (inactive); GI50 (CAKI-1): 1.5 µM (inactive); GI50 (OVCAR-8): 2.07 µM (inactive); GI50 (DU-145): > 10 µM (inactive); GI50 (SK-MEL-5): 1.77 µM (inactive); GI50 (HOP-62): > 10 µM (inactive); GI50 (SF-268): 2.04 µM (inactive); GI50 (SK-OV-3): 3.12 µM (inactive); GI50 (SN12C): 1.74 µM (inactive); GI50 (LOX IMVI): 1.56 µM (inactive); GI50 (Malme-3M): 2.07 µM (inactive); GI50 (CCRF-CEM): 0.244 µM (active); GI50 (MDA-MB-231): 1.9 µM (inactive)
